Experimental data taken from patent publication US20250129021A1, “SMALL MOLECULE PROTEIN SYNTHESIS MODULATORS” (Interdict Bio, Inc., priority 2023, published 2025).

Columns and labels:
Assay type in all cases: biochemical
MYC = test: In vitro transcription-translation (IVTT) assay, MYC reporter; conditions: IVTT assay, HeLa S3 lysate, MYC reporter, normalized sfGFP/mCherry ratio; half-log dilutions 30 μM-0.1 μM, 2 hrs at 30° C.
Outline: (§1)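 Reporter: mCherry, P2A, then 3×FLAG-target peptide-sfGFP fusion, IRES-initiated; HeLa S3 lysate IVTT; cpd dilutions 30 μM−0.1 μM half-log in 100% DMSO (dilution-plate conc); DNA added last; 2 h, 30° C; PBS quench.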

CCND1 = test: In vitro transcription-translation (IVTT) assay, CCND1 reporter; conditions: IVTT, HeLa S3 lysate, 2 hrs at 30° C.
Outline: as §1

CCNE1 = test: In vitro transcription-translation (IVTT) assay, CCNE1 reporter; conditions: HeLa S3 lysate, 2 hrs at 30° C.
Protocol: Each preparation takes 8 cell pellets (4 ml packed volume each, approximately 1.0×10^9 cells per pellet). Thaw cell pellets from −80° C. on ice for 90 mins. Lay pellets horizontally on top of the ice and rotate every 30 mins to ensure even thawing. Once thawed, add 4 mL of cold lysis buffer to each pellet, and using a serological pipet, gently pipet up and down to break up clumps. Incubate resuspended cells in ice for an additional 30 mins (plunged into ice). During 30 min incubation, rinse and RNase-zap (Ambion) glass dounces (use loose pestle “A”), gently dry and place on ice until needed. Prepare RNase-free Eppendorf tubes for spinning and for batch storage. Add batch labels to 1.5-1.7 mL RNase-free microcentrifuge tubes (labeling scheme below). Each batch will have an extra 1.5-1.7 mL RNase-free microcentrifuge tube for 40 μL of lysate, label the top of this tube (labeling scheme below). After 30 min incubation, transfer all 8 mL of cell pellet to dounce. Cell lysis is complete after douncing 100 times. Aliquot cell lysis into 1.5-1.7 mL temporary-microcentrifuge tubes. Place tubes in centrifuge with “fins” out, and spin at 1,200×g for 5 mins. After the first spin use a 1 mL pipet to resuspend each tube and repeat spin. This acts as an additional lysis step, is more vigorous and increases lysate yield. During second spin get liquid N2 and a fresh conical tube on ice. After spin is complete, transfer supernatant (lysate) from microcentrifuge tubes into the 50 mL conical tube and keep on ice. Repeat steps 10-14 for all other cell pellets until completed. Once all cell lysate has been transferred to the 50 mL conical tube pipet to mix so the solution is homogenous. Transfer 1 mL of lysate into batch-labeled microcentrifuge tubes and flash freeze in liquid nitrogen. Be sure to pipet up and down to mix throughout transfer step. Place all tubes in the […] for long-term storage.
In vitro transcription-translation assay setup: Each assay includes a master mix containing lysate and shared components, a 96-well plate containing compound titrations for testing, a 96-well DNA plate with reporter constructs to be tested, 96-well skirted PCR plates, and 96-well flat-bottom, black, fluorescent assay plates. Reaction materials setup: (A) Master mix—15 mL conical tube (3 mL of HeLa S3 Lysate described above; 0.6 mL of ThermoFisher Accessory Proteins (#88882); 1.2 ml of ThermoFisher Reaction Mix (#88882); 0.54 mL of nuclease-free Water); (B) 96-Well Master Mix+Compound Plate (Half-log dilutions (30 μM−0.1 μM) of 4 compounds of interest are prepared in 100% DMSO); 96-Well DNA Plate (Five DNA constructs are plated into single columns within the plate. Row 1 of the column contains nuclease free H2O, all other wells contain 110 ng/μL plasmid DNA). Reactions are started by mixing 155 μL of master mix and 3.5 μL of compound serial dilutions, then 9.1 μL of master mix+compound mixture is aliquoted across 5 96-well plates. Reactions begin with final addition of 2 μL of DNA for a 11.1 μL reaction volume in each well. The entire plate is sealed, and incubated for 2 hrs at 30° C. After 2 hrs, quench the assay using 45 μL of PBS, and transfer 50 μL to a flat-bottom black microplate Quantify the sfGFP and mCherry signals from each well on each plate, taking 3 reads of each plate, and perform data analysis below.
In vitro transcription-translation assay data analysis: Each plate is read three times in channels for both sfGFP and mCherry signals. The average signal across these 3 reads is then calculated for further analysis. Control wells containing no DNA reporter are subtracted from reporter wells in the same column to remove auto-fluorescence of the lysate. Then, the ratio of sfGFP/mCherry is calculated per well, and these ratios are averaged across the triplicate experiments on the same plate. Finally, the ratio of each titration concentration is normalized to the no drug control to create the normalized stalling metric. […]

CCNTB1 = test: In vitro transcription-translation (IVTT) assay, CCNTB1 reporter; conditions: HeLa S3 lysate, 2 hrs at 30° C.
Outline: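 IC50 fitted from the sfGFP/mCherry fluorescence ratio, normalized to no-drug control after no-DNA background subtraction. Reactions ran 2 h at 30° C in HeLa S3 cell lysate with reporter plasmid DNA and half-log compound titrations (30 μM−0.1 μM, in DMSO).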

IC50 (CCND1) [µM] | IC50 (CCNE1) [µM] | IC50 (CCNTB1) [µM] | SMILES | IC50 (MYC) [µM]
> 30 | 20 to 30 | 10 to 20 | COc1ccc(C[C@H]2NC[C@H](O)[C@H]2OC(=O)NCC(F)(F)CO)cc1 [V188164, (2R,3S,4S)-4-hydroxy-2-[(4-methoxyphenyl)methyl]pyrrolidin-3-yl N-(2,2-difluoro-3-hydroxypropyl)carbamate] | > 30
< 10 | < 10 | < 10 | COc1ccc(C[C@H]2NC[C@H](O)[C@H]2OC(=O)NCc2ccc(=O)[nH]c2)cc1 [V188206, (2R,3S,4S)-4-hydroxy-2-[(4-methoxyphenyl)methyl]pyrrolidin-3-yl N-[(6-oxo-1H-pyridin-3-yl)methyl]carbamate] | < 10
< 10 | < 10 | < 10 | COc1ccc(C[C@H]2NC[C@H](O)[C@H]2OC(=O)NCc2ccc(S(N)(=O)=O)cc2)cc1 [V188304, (2R,3S,4S)-4-hydroxy-2-[(4-methoxyphenyl)methyl]pyrrolidin-3-yl N-[(4-sulfamoylphenyl)methyl]carbamate] | < 10
20 to 30 | < 10 | < 10 | O=C(NC[C@@H]1CCOC1)O[C@@H]1[C@@H](O)CN[C@@H]1Cc1ccc(Cl)cc1 [V188288, (2R,3S,4S)-2-[(4-chlorophenyl)methyl]-4-hydroxypyrrolidin-3-yl N-[(3S)-oxolan-3-ylmethyl]carbamate] | 10 to 20
10 to 20 | < 10 | < 10 | O=C(NCc1ccc(F)cc1)O[C@@H]1[C@@H](O)CN[C@@H]1Cc1ccc(Cl)cc1 [V188271, (2R,3S,4S)-2-[(4-chlorophenyl)methyl]-4-hydroxypyrrolidin-3-yl N-[(4-fluorophenyl)methyl]carbamate] | 10 to 20
> 30 | > 30 | > 30 | O=C(NCc1ccc(OC(F)(F)F)cc1)O[C@@H]1[C@@H](O)CN[C@@H]1Cc1ccc(Cl)cc1 [V188286, (2R,3S,4S)-2-[(4-chlorophenyl)methyl]-4-hydroxypyrrolidin-3-yl N-{[4-(trifluoromethoxy)phenyl]methyl}carbamate] | > 30
20 to 30 | 10 to 20 | < 10 | COc1ccc(C[C@H]2NC[C@H](O)[C@H]2OC(=O)NC[C@H]2CCNC2)cc1F [V188076, (2R,3S,4S)-2-[(3-fluoro-4-methoxyphenyl)methyl]-4-hydroxypyrrolidin-3-yl N-[(3S)-pyrrolidin-3-ylmethyl]carbamate] | > 30
< 10 | < 10 | < 10 | COc1ccc(C[C@H]2NC[C@H](O)[C@H]2OC(=O)NCC2CCS(=O)(=O)C2)cc1 (stereo partly drawn) [V188154, (2R,3S,4S)-4-hydroxy-2-[(4-methoxyphenyl)methyl]pyrrolidin-3-yl N-[(1,1-dioxo-1lambda6-thiolan-3-yl)methyl]carbamate] | < 10
> 30 | 10 to 20 | < 10 | COc1ccc(C[C@H]2NC[C@H](O)[C@H]2OC(=O)NC[C@@H]2[C@@H]3CNC[C@@H]32)cc1 [V188161, (2R,3S,4S)-4-hydroxy-2-[(4-methoxyphenyl)methyl]pyrrolidin-3-yl N-[(1R,5S,6S)-3-azabicyclo[3.1.0]hexan-6-ylmethyl]carbamate] | > 30
< 10 | < 10 | < 10 | COc1ccc(C[C@H]2NC[C@H](O)[C@H]2OC(=O)NC[C@H]2CCN(c3nccs3)C2)cc1 [V188170, (2R,3S,4S)-4-hydroxy-2-[(4-methoxyphenyl)methyl]pyrrolidin-3-yl N-{[(3R)-1-(1,3-thiazol-2-yl)pyrrolidin-3-yl]methyl}carbamate] | 10 to 20
< 10 | < 10 | < 10 | COc1ccc(C[C@H]2NC[C@H](O)[C@H]2OC(=O)NCc2ccnc(C(F)(F)F)c2)cc1 [V188050, (2R,3S,4S)-4-hydroxy-2-[(4-methoxyphenyl)methyl]pyrrolidin-3-yl N-{[2-(trifluoromethyl)pyridin-4-yl]methyl}carbamate] | < 10
< 10 | < 10 | < 10 | COc1ccc(C[C@H]2NC[C@H](O)[C@H]2OC(=O)NCc2ccnc(N3CCCC3)c2)cc1 [V188226, (2R,3S,4S)-4-hydroxy-2-[(4-methoxyphenyl)methyl]pyrrolidin-3-yl N-{[2-(pyrrolidin-1-yl)pyridin-4-yl]methyl}carbamate] | < 10
20 to 30 | 20 to 30 | 10 to 20 | COc1ccc(C[C@H]2NC[C@H](O)[C@H]2OC(=O)NCCC23CCCN2CCC3)cc1 [V188135, (2R,3S,4S)-4-hydroxy-2-[(4-methoxyphenyl)methyl]pyrrolidin-3-yl N-[2-(hexahydropyrrolizin-7a-yl)ethyl]carbamate] | 10 to 20
> 30 | 20 to 30 | 10 to 20 | O=C(NCc1ccc(Cl)cc1)O[C@@H]1[C@@H](O)CN[C@@H]1Cc1ccc(Cl)cc1 [V188273, (2R,3S,4S)-2-[(4-chlorophenyl)methyl]-4-hydroxypyrrolidin-3-yl N-[(4-chlorophenyl)methyl]carbamate] | > 30
10 to 20 | < 10 | < 10 | O=C(NCc1ccccc1)O[C@@H]1[C@@H](O)CN[C@@H]1Cc1ccc(Cl)cc1 [V188203, (2R,3S,4S)-2-[(4-chlorophenyl)methyl]-4-hydroxypyrrolidin-3-yl N-benzylcarbamate] | 10 to 20
> 30 | 10 to 20 | < 10 | O=C(NCC1(F)CC1)O[C@@H]1[C@@H](O)CN[C@@H]1Cc1ccc(Cl)cc1 [V188269, (2R,3S,4S)-2-[(4-chlorophenyl)methyl]-4-hydroxypyrrolidin-3-yl N-[(1-fluorocyclopropyl)methyl]carbamate] | > 30
10 to 20 | < 10 | < 10 | COc1ccc(C[C@H]2NC[C@H](O)[C@H]2OC(=O)NC[C@H]2C[C@@H](N)C2)cc1 [V188147, (2R,3S,4S)-4-hydroxy-2-[(4-methoxyphenyl)methyl]pyrrolidin-3-yl N-{[(1s,3s)-3-aminocyclobutyl]methyl}carbamate] | < 10
10 to 20 | < 10 | < 10 | O=C(NCC1CC1)O[C@@H]1[C@@H](O)CN[C@@H]1Cc1ccc(Cl)cc1 [V188275, (2R,3S,4S)-2-[(4-chlorophenyl)methyl]-4-hydroxypyrrolidin-3-yl N-(cyclopropylmethyl)carbamate] | < 10

SMILES | IC50 (CCND1) [µM] | IC50 (CCNE1) [µM] | IC50 (CCNTB1) [µM] | IC50 (MYC) [µM]
COc1ccc(C[C@H]2NC[C@H](O)[C@H]2OC(=O)NC[C@H]2CCN(C)C2)cc1 [V188108, (2R,3S,4S)-4-hydroxy-2-[(4-methoxyphenyl)methyl]pyrrolidin-3-yl N-{[(3R)-1-methylpyrrolidin-3-yl]methyl}carbamate] | > 30 | > 30 | 20 to 30 | > 30
